These results are taken from PubChem BioAssay AID1508591.

For orientation: half-life means the time in which the quantity being followed falls by half. High values mean slow decline, low ones rapid decline.

For the data set the following is noted: rat; liver microsomes; pH 7.4; 15.0 min; 1.0 µM. A general note: Liver microsomes are vesicles of endoplasmic reticulum, rich in cytochrome P450 enzymes.
`CCCCN1CCC[C@H]1CNC(=O)c1cc(C#N)c2ccccc2c1OC` gave a half-life of 4.23 min.

The compound `O=[S+]([O-])(Nc1ccc(N2CCNCC2)cc1)c1ccc(NCc2ccc(Br)cc2O)cc1` displayed a half-life greater than 30 min.

The compound `CCNC(=O)c1coc(COc2ccc3c(c2)C(c2ccc(F)cc2)N(C(=O)CC(C)C)CC3)n1` (stereo unspecified) yielded a half-life of 1.55 min.

`O=C(Nc1ccc(S(=O)(=O)Nc2nccs2)cc1)c1cccc2ccccc12` registered a half-life greater than 30 min.

The compound `CCCNC(=O)[C@H]1O[C@H]1C(=O)N[C@H](C(=O)N1CCC[C@@H]1C(=O)OC)C(C)CC` (stereo partly specified) displayed a half-life greater than 30 min.

In the case of `C=CCc1ccc(O)c(-c2ccc(O)c(CC=C)c2)c1`, the half-life was found to be 2.36 min.

Compound `CCOc1ccc(CCNC(=O)c2cc3sccc3n2CCN2CCOCC2)cc1OCC` had a half-life of 1.6 min.

Take `COC(=O)c1nc(-c2cccc3ccccc23)oc1OC`: the half-life was found to be 14 min.

Compound `Cc1nc2sccn2c(=O)c1S(=O)(=O)Nc1ccc(N2CCN(S(C)(=O)=O)CC2)cc1` returned a half-life greater than 30 min.

`CN1CC=C(c2nc(Nc3ccc(F)c(F)c3)c3ccccc3n2)CC1` showed a half-life of 3.6 min.

With `Cc1ccc(S(=O)(=O)Nc2cnccc2C(=O)Nc2nc(-c3ccc(Oc4ccccc4)cc3)cs2)cc1`, the half-life worked out at 6.9 min.

`Cc1nc(Nc2n[nH]c3c2CN(C(=O)N[C@H](CN(C)C)c2ccccc2)C3(C)C)c2sccc2n1` displayed a half-life of 21.9 min.

As for `Cc1cccc(NCc2ccc(O)c3ncccc23)c1`, the half-life turned out to be 2.2 min.

Turning to `Cc1ccc(C(=O)N2CCc3c(nc4cc(-c5ccccc5)[nH]n4c3=O)C2)cn1`, the half-life was greater than 30 min.

Consider `Cc1cc(CNC(=O)c2ccc3c(c2)n(CC2CC2)c(=O)n3C2CCCCC2)on1`, for which the half-life turned out to be 12.4 min.

The compound `O=C(Nc1ccc(OC(F)(F)Cl)cc1)c1cnc(N2CC[C@@H](O)C2)c(-c2ccn[nH]2)c1` gave a half-life greater than 30 min.

`COc1cccc(C(=O)Nc2ccc3c(N4CCOCC4)ncnc3c2)c1` gave a half-life of 27.3 min.

Consider `COc1ccc(-c2[nH]nc3ncc(-c4ccc(CO)cc4)nc23)cc1F`, for which the half-life worked out at 11.3 min.

The compound `Cc1ccc(C(=O)N2CCc3sc(C(=O)NC(C)c4ccccc4)cc3C2)cc1` (stereo unspecified) yielded a half-life of 4.79 min.

As to `COc1cccc(-c2nc(-c3cc4cc(OC)ccc4[nH]c3=O)no2)c1`, the half-life worked out at 24 min.

For the compound `COc1ccc(NC(=O)c2[nH]c(C)c(C(C)=O)c2C)cc1S(=O)(=O)Nc1ccc(C#N)cc1`, the half-life is greater than 30 min.

For `CCOc1ccc(CCNC(=O)c2cccc(C(=O)c3ccccc3)c2)cc1OCC`, the half-life came to 1.66 min.

The compound `Cc1cc(C)nc(NC(=S)N2CCN(c3ccc(Cl)cc3F)CC2)c1` returned a half-life greater than 30 min.

Consider `CC(C)(C)c1ccc(S(=O)(=O)N2CCC(c3ccncc3)CC2)cc1`, for which the half-life was found to be 14.3 min.

In turn, `CN1C[C@@H]2C[C@H]1CN2c1cc2c(cc1F)c(=O)c(C(=O)O)cn2C1CC1` displayed a half-life greater than 30 min.

`O=C1CCc2ccc(OCCCCN3CCN(c4cccc(Cl)c4Cl)CC3)cc2N1` displayed a half-life of 2.56 min.

`COc1ccc2[nH]c(=O)c(-c3noc(-c4cccs4)n3)cc2c1` gave a half-life of 13 min.

For `CNC(=O)C1=C(C)NC(Nc2nc3ccccc3o2)=NC1c1[nH]ncc1Cl` (stereo unspecified), the half-life was found to be 5.7 min.

Regarding `Nc1ncnc(N2CCc3ccccc32)c1[N+](=O)[O-]`, the half-life was found to be 8.6 min.

As for `O=C(Nc1cccc(OC(F)(F)F)c1)c1cc(-c2ccc[nH]2)n[nH]1`, the half-life stood at 20.9 min.

In turn, `O=C(CNC(=O)c1cnccn1)NC1CCCc2c1[nH]c1ccc(Cl)cc21` (stereo unspecified) returned a half-life greater than 30 min.

The compound `COc1cccc(-c2cn3c(n2)sc2cc(C(=O)NCCc4ccc(OC)c(OC)c4)ccc23)c1` showed a half-life of 2.26 min.

The compound `O=C1CCC(C(=O)N2CCSCC2)CN1Cc1ccc(Cl)cc1` (stereo unspecified) yielded a half-life of 10 min.

Turning to `NC(=O)C1CCN(c2ncc(-c3cccc(N4CCOCC4)c3)s2)CC1`, the half-life is greater than 30 min.

`COc1ccccc1NC(=O)C1=C(C)Nc2c(C(=O)Nc3cccc(C)c3)cnn2C1c1ccccc1Cl` (stereo unspecified) gave a half-life of 2.98 min.

`Cc1ccccc1C(=O)Nc1sc2c(c1C(=O)NCc1ccco1)CCC(C(C)(C)C)C2` (stereo unspecified) returned a half-life of 23.9 min.

Consider `CCOC(=O)c1nn(-c2ccc(OC)cc2)c(=O)c2c(N)scc12`, for which the half-life was 9.52 min.

As for `CC1=NN(c2ccc(C(=O)O)cc2)C(=O)/C1=C/c1ccc(-c2cc(C)c(C)cc2[N+](=O)[O-])o1`, the half-life was determined as 22.2 min.

Compound `O=C(Nc1ccc(S(=O)(=O)Nc2nccs2)cc1)c1ccc2ccccc2c1` showed a half-life greater than 30 min.

Compound `NC(=O)C1CCN(c2nc(-c3ccccc3Cl)cs2)CC1` showed a half-life of 4.02 min.

Take `CCOc1ccc(CCNC(=O)c2cc3ccccc3n2CCN2CCOCC2)cc1OCC`: the half-life amounted to 1.6 min.

Regarding `COc1cc2nccc(Oc3ccc(NC(=O)C4(C(=O)Nc5ccc(F)cc5)CC4)cc3)c2cc1OC`, the half-life is greater than 30 min.

The compound `C#Cc1ccc(NC(=O)c2cnn3c(C)cc(C)nc23)cc1` gave a half-life of 25.5 min.

With `CNc1nc2c(s1)C(c1ccc(Cl)cc1)CC(=O)N2` (stereo unspecified), the half-life was 2.07 min.

Turning to `Cc1cnc(CNc2nc(-c3cccc(NS(C)(=O)=O)c3)nc3ccccc23)cn1`, the half-life turned out to be 21 min.

The compound `O=c1c2ccccc2nc(/C=C/c2cccnc2)n1Cc1ccccc1` yielded a half-life of 8.99 min.

As to `CCOC(=O)c1cnc2ccc(-c3cncc(NS(=O)(=O)c4ccccc4)c3)cn12`, the half-life worked out at 19 min.

The compound `O=C(NC1CCCc2c1cnn2-c1ccc(F)cc1F)c1ccccc1` (stereo unspecified) returned a half-life greater than 30 min.

`O=C(c1ccc2c(c1)ncn2-c1ccc(C(F)(F)F)cc1)N1CCCCC1` had a half-life of 7.6 min.

In turn, `COc1cccc(NC(=S)N2CCN(c3cccc(C(F)(F)F)c3)CC2)n1` gave a half-life of 17.6 min.

`COc1ccc(-n2cnc3cc(C(=O)N4CCCCC4)ccc32)cc1` returned a half-life of 20.7 min.

Turning to `CC[C@@]1(O)C(=O)OCc2c1cc1n(c2=O)Cc2c-1nc1ccccc1c2CCNC(C)C`, the half-life was greater than 30 min.

`CC(=O)c1c(C)[nH]c(C(=O)Nc2cccc([S+](=O)([O-])N3CC[C@@H](F)C3)c2)c1C` came in with a half-life of 3.2 min.

In turn, `NC(=O)N1CCCC(C(=O)N2CCCN(c3ccc(F)cc3)CC2)C1` (stereo unspecified) yielded a half-life greater than 30 min.

Compound `Nc1ncnc2c1c(-c1cnc3[nH]ccc3c1)nn2C1CCCC1` came in with a half-life of 3.09 min.

Consider `Cn1nnnc1Sc1ncnc2sccc12`, for which the half-life was greater than 30 min.

On to `CCOC(=O)Cc1ccc(NC(=O)n2ncc3cc(Cl)ccc32)cc1`, for which the half-life turned out to be 2.5 min.

For `CN(C)c1ccc2cc(C(=O)N[C@@H](CCCN=C(N)CCl)C(=O)NCc3ccccc3)ccc2c1`, the half-life came out at 5.3 min.

For `Fc1ccc(CNc2nc(-c3ccncc3)nc3ccccc23)cc1F`, the half-life came out at 11 min.

With `c1ccc(Nc2nc(NCc3ccco3)c3ccccc3n2)cc1`, the half-life was found to be 2.09 min.

`Cc1ccc(S(=O)(=O)Nc2cnccc2C(=O)Nc2nc3ccccc3s2)cc1` showed a half-life of 4.1 min.

Compound `Cc1ccc(C)c(CN2C(=O)c3ccccc3S(=O)c3ccc(C(=O)N4CCN(c5ccccc5F)CC4)cc32)c1` (stereo unspecified) came in with a half-life of 2.32 min.

In turn, `CNC(=O)c1ccc(C)c(-n2c(C)cc(OCc3ccc(F)cc3F)c(Br)c2=O)c1` returned a half-life greater than 30 min.

`COc1ccccc1S(=O)(=O)Nc1cnccc1C(=O)Nc1nc(-c2ccccc2)cs1` displayed a half-life of 16 min.

`CN(C)c1cc(-c2nc(Nc3ccc(F)c(F)c3)c3ccccc3n2)ccn1` registered a half-life of 13 min.

Compound `COc1ccc(OCCN2CCN(C(=O)c3ccc(OC)cc3)CC2)cc1` returned a half-life greater than 30 min.

Compound `Cc1ccc(S(=O)(=O)Nc2cnccc2C(=O)Nc2ccc(S(=O)(=O)Nc3nccs3)cc2)cc1` yielded a half-life of 5.3 min.

`N[C@@H](CSCc1ccccc1)C(=O)O`: the half-life is greater than 30 min.

`OC[C@H]1O[C@H](O[C@H]2O[C@H](CO)[C@@H](O)[C@H](O)[C@H]2O)[C@H](O)[C@@H](O)[C@@H]1O` returned a half-life greater than 30 min.

`COc1ccc(NC(=O)c2ccccc2)cc1S(=O)(=O)Nc1ccc(Br)cc1` displayed a half-life of 7.7 min.

The compound `Cc1ccc(/C=C/c2nc3ccccc3n2S(=O)(=O)c2cccc(Cl)c2)cc1` gave a half-life of 17.6 min.

`Cc1cc(C)c2nc(-c3ccccn3)cc(C(=O)Nc3ccc(S(=O)(=O)Nc4onc(C)c4C)cc3)c2c1` came in with a half-life greater than 30 min.

In turn, `CCOP(=O)(Cc1ccc(C(=O)Nc2ccc(Br)cc2C#N)cc1)OCC` had a half-life greater than 30 min.

On to `Cc1cc(SCC(=O)c2ccccc2)n2ncc(-c3ccccc3)c2n1`, for which the half-life is 3.77 min.

For the compound `CC(=O)c1c(C)[nH]c(C(=O)Nc2cccc([S+](=O)([O-])Nc3ccc(C#N)cc3)c2)c1C`, the half-life is greater than 30 min.

For `Cc1ccc(S(=O)(=O)NCC(=O)Nc2nc(-c3ccccc3)cs2)cc1`, the half-life was 2.1 min.

Compound `Cc1cccc(C)c1Nc1c(-c2cccs2)nc2ncccn12` returned a half-life of 3.72 min.

On to `CCN1CCN(c2ccc3cc(S(=O)(=O)N4CCOCC4)ccc3n2)CC1`, for which the half-life came to 16 min.

In turn, `CC(=O)Nc1nc(C)c(-c2ccc(Cl)c(S(=O)(=O)NCCO)c2)s1` gave a half-life greater than 30 min.

With `COc1ccnc(NC(=S)N2CCN(c3ccccc3C(F)(F)F)CC2)c1`, the half-life came to 2.9 min.

In turn, `O=C(NC(c1ccccc1)c1cc(Cl)c2cccnc2c1O)c1cccnc1` (stereo unspecified) gave a half-life of 18.6 min.

Regarding `CN1CC(CNC(=O)OCc2ccccc2)C[C@H]2c3cccc4c3c(cn4C)CC21` (stereo partly specified), the half-life is 14.3 min.

The compound `O=C(Nc1ccccc1F)c1nc(S(=O)(=O)Cc2ccccc2F)ncc1Cl` came in with a half-life of 1.49 min.

The compound `Cc1ccc(C)n1-c1cccc(C(=O)O)c1` registered a half-life of 12 min.

For the compound `COC(=O)C1=C(C)NC(C)=C(C(=O)OCCCN2CCC(c3ccccc3)(c3ccccc3)CC2)C1c1cccc([N+](=O)[O-])c1` (stereo unspecified), the half-life came to 5.13 min.

In the case of `CCOC(=O)c1nn(-c2ccccc2)c(=O)c2c(N)scc12`, the half-life was 2.12 min.

With `COc1cccc(CNc2ccc(S(=O)(=O)Nc3nc4ccccc4s3)cc2)c1O`, the half-life is greater than 30 min.

Turning to `CN1CCN(C(c2ccccc2)c2ccccc2)CC1`, the half-life was found to be 2.56 min.

`COC(=O)[C@H](NC(=O)c1cc(-c2ccccc2)nc2ccccc12)c1ccccc1` displayed a half-life of 11 min.

Regarding `NC(=O)C1CCN(c2ncc(Br)cn2)CC1`, the half-life is greater than 30 min.

On to `Cc1cc(C)c(C(=O)Nc2cccc([S+](=O)([O-])N3CCCC3)c2)[nH]1`, for which the half-life was 6.5 min.
